Results reported in patent US11052092B2, “N-{[2-(piperidin-1-yl)phenyl](phenyl)methyl}-2-(3-oxo-3,4-dihydro-2H-1,4-benzoxazin-7-yl)acetamide derivatives and related compounds as ROR-gamma modulators for treating autoimmune diseases” (Genfit, priority 2017, dated 2021).

Legend:
human RORγt = target: T1, human RORγt (Homo sapiens, UniProt P51449); test: RORE Luciferase/RORγt transactivation assay; format: cell-based; details: COS-7 cells transfected with human IL-17 promoter luciferase reporter and RORγt plasmid; 20 h with compound; read-out: IC50, RORγt activity inhibition
T1 construct: the full-length cDNA of human RORγt; expressed in transfected cells; host or cells: COS-7 (monkey kidney)
T1 sequence (P51449 1-497 isoform P51449-2): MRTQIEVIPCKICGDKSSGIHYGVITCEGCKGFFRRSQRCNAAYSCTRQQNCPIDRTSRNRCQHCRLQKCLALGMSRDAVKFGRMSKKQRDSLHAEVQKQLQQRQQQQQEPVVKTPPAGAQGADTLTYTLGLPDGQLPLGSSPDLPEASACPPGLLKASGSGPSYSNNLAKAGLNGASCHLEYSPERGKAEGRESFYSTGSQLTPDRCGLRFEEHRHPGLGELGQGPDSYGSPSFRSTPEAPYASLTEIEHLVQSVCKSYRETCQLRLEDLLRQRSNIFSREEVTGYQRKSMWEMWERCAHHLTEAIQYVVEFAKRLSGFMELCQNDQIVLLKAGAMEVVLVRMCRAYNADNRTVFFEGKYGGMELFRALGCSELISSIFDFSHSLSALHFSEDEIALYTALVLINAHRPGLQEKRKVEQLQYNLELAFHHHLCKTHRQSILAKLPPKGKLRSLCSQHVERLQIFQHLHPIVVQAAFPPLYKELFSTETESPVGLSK
Summary of the method: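 COS-7 cells were transiently co-transfected with a human IL-17 promoter (RORE/CNS)–luciferase reporter and a RORγt expression plasmid, then seeded at 10000 cells/well in serum-free, phenol red-free DMEM. Compounds were added at 0.3% DMSO final. Luciferase was read with Steady-Glo, and IC50 and Emax were derived.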

[1] = tested on: Murine EL-4 lymphoma cell line overexpressing human RORγt; test: IL-17 secretion from EL4 murine lymphoma; format: cell-based; details: Mus musculus; human RORγt-transfected EL4 cells, PMA (10 ng/mL) and ionomycin (1 μM), 24 h; read-out: IC50, IL-17 secretion inhibition
Protocol: Murine EL-4 lymphoma cell line overexpressing human RORγt was used in this functional assay to assess compound ability to inhibit IL-17 cytokine secretion.
EL-4 cells are maintained in a standard culture medium RPMI supplemented with 10% fetal calf serum, 1% sodium pyruvate, 1% essential amino acids and 1% antibiotics at 37° C. in a humidified atmosphere of 5% CO02 and 95% air. Culture medium was changed every 2 days. EL4 cells were transfected with a plasmid encoding hRORγt (sequence identical to published sequence NM 001001523). […] Briefly, 1 μg of DNA/1 million cells was served to transfect EL-4 cells. Cell/DNA suspension was transferred into certified cuvette and the electroporation of RORγt plasmid was carried out using appropriate Nucleofector® program.
Cells were seeded in 96 well plates at a density of 150000 cells/I well then treated with compounds of this invention at indicated concentrations and incubated for 24 hours at 37° C. in a humidified atmosphere of 5% C02 and 95% air. EL-4 cells were pretreated with test compounds (RORγ modulators) and stimulated with PMA (10 ng/mL) and ionomycin (1 μM final concentration) in the presence of test compound concentrations for additional 24 h at 37° C. in a humidified atmosphere of 5% C02 and 95% air. Subsequently, supernatants were collected (after centrifugation at 300 g for 10 minutes) to determine the concentrations of IL-17 by HTRF (CisBio, France) or ELISA (R&D Systems Europe) according to the manufacturer's protocols.

| Compound | IC50 (human RORγt) [µM] | IC50 [1] [µM] |
| --- | --- | --- |
| Cc1ccc(C(NC(=O)Cc2ccc3[nH]cc(CO)c3c2)c2ccc(C)o2)c(N2CCCCC2)c1 (stereo not drawn) [Cpd. 58, 2-[3-(hydroxymethyl)-1H-indol-5-yl]-N-{[4-methyl-2-(piperidin-1-yl)phenyl](5-methylfuran-2-yl)methyl}acetamide] | 0.01 to 0.1 | < 0.1 |
| CNS(=O)(=O)c1c[nH]c2ccc(CC(=O)NC(c3ccc(C)o3)c3ccc(C)cc3N3CCCCC3)cc12 (stereo not drawn) [Cpd. 115, N-{[4-methyl-2-(piperidin-1-yl)phenyl](5-methylfuran-2-yl)methyl}-2-[3-(methylsulfamoyl)-1H-indol-5-yl]acetamide] | 0.01 to 0.1 | 0.1 to 1 |
| Cc1ccc(C(NC(=O)Cc2ccc3[nH]c(N4CCOCC4)nc3c2)c2ccc(C)o2)c(N2CCCCC2)c1 (stereo not drawn) [Cpd. 93, N-{[4-methyl-2-(piperidin-1-yl)phenyl](5-methylfuran-2-yl)methyl}-2-[2-(morpholin-4-yl)-1H-1,3-benzodiazol-5-yl]acetamide] | 0.01 to 0.1 | < 0.1 |
| Cc1ccc(C(NC(=O)Cc2ccc3c(c2)CS(=O)(=O)C3)c2ccc(C)o2)c(N2CCCCC2)c1 (stereo not drawn) [Cpd. 78, 2-(2,2-dioxo-1,3-dihydro-2-benzothiophen-5-yl)-N-{[4-methyl-2-(piperidin-1-yl)phenyl](5-methylfuran-2-yl)methyl}acetamide] | 0.01 to 0.1 | 0.1 to 1 |
| Cc1ccc(C(NC(=O)C2(c3ccc4c(c3)CS(=O)(=O)C4)CC2)c2ccc(Cl)o2)c(C)c1 (stereo not drawn) [Cpd. 72, N-[(5-chlorofuran-2-yl)(2,4-dimethylphenyl)methyl]-1-(2,2-dioxo-1,3-dihydro-2-benzothiophen-5-yl)cyclopropane-1-carboxamide] | 0.01 to 0.1 | 0.1 to 1 |
| Cc1ccc(C(NC(=O)Cc2ccc3c(ccn3S(C)(=O)=O)c2)c2ccc(C)o2)c(N2CCCCC2)c1 (stereo not drawn) [Cpd. 106, 2-(1-methanesulfonyl-1H-indol-5-yl)-N-{[4-methyl-2-(piperidin-1-yl)phenyl](5-methylfuran-2-yl)methyl}acetamide] | 0.01 to 0.1 | 0.1 to 1 |
| Cc1ccc(C(NC(=O)Cc2ccc3[nH]cc(C(=O)N4CCOCC4)c3c2)c2ccc(C)o2)c(N2CCCCC2)c1 (stereo not drawn) [Cpd. 120, N-{[4-methyl-2-(piperidin-1-yl)phenyl](5-methylfuran-2-yl)methyl}-2-[3-(morpholine-4-carbonyl)-1H-indol-5-yl]acetamide] | 0.01 to 0.1 | < 0.1 |
| Cc1ccc(C(NC(=O)C2(c3ccc4c(c3)CN(S(C)(=O)=O)C4)CC2)c2ccc(Cl)o2)c(N2CCCC2)c1 (stereo not drawn) [Cpd. 80, N-[(5-chlorofuran-2-yl)[4-methyl-2-(pyrrolidin-1-yl)phenyl]methyl]-1-(2-methanesulfonyl-2,3-dihydro-1H-isoindol-5-yl)cyclopropane-1-carboxamide] | 0.01 to 0.1 | 0.1 to 1 |
| Cc1ccc(C(NC(=O)Cc2ccc3c(c2)C(=NN)C(=O)N3)c2ccc(C)o2)c(N2CCCCC2)c1 (stereo not drawn) [Cpd. 37, 2-(3-hydrazinylidene-2-oxo-2,3-dihydro-1H-indol-5-yl)-N-{[4-methyl-2-(piperidin-1-yl)phenyl](5-methylfuran-2-yl)methyl}acetamide] | 0.01 to 0.1 | 0.1 to 1 |
| Cc1ccc(C(NC(=O)C2(c3ccc4c(c3)CN(S(C)(=O)=O)C4)CC2)c2ccc(C)o2)c(N(C)C)c1 (stereo not drawn) [Cpd. 76, N-{[2-(dimethylamino)-4-methylphenyl](5-methylfuran-2-yl)methyl}-1-(2-methanesulfonyl-2,3-dihydro-1H-isoindol-5-yl)cyclopropane-1-carboxamide] | 0.01 to 0.1 | 0.1 to 1 |
| Cc1ccc(C(NC(=O)Cc2ccc3[nH]cc(C(=O)CS(C)(=O)=O)c3c2)c2ccc(C)o2)c(Br)c1 (stereo not drawn) [Cpd. 104, N-[(2-bromo-4-methylphenyl)(5-methylfuran-2-yl)methyl]-2-[3-(2-methanesulfonylacetyl)-1H-indol-5-yl]acetamide] | 0.1 to 1 | 1 to 10 |
| Cc1ccc(C(NC(=O)Cc2ccc3c(c2)CCC(=O)N3)c2ccc(C)o2)c(Br)c1 (stereo not drawn) [Cpd. 36, N-[(2-bromo-4-methylphenyl)(5-methylfuran-2-yl)methyl]-2-(2-oxo-1,2,3,4-tetrahydroquinolin-6-yl)acetamide] | 0.1 to 1 | 0.1 to 1 |
| Cc1ccc(C(NC(=O)Cc2ccc3c(c2)C(C)(O)C(=O)N3C)c2ccc(C)o2)c(N2CCCCC2)c1 (stereo not drawn) [Cpd. 39, 2-(3-hydroxy-1,3-dimethyl-2-oxo-2,3-dihydro-1H-indol-5-yl)-N-{[4-methyl-2-(piperidin-1-yl)phenyl](5-methylfuran-2-yl)methyl}acetamide] | 0.1 to 1 | 0.1 to 1 |
| Cc1ccc(C(NC(=O)Cc2ccc3c(c2)CC(=O)N3)c2ccc(Cl)o2)c(N2CCCCC2)c1 (stereo not drawn) [Cpd. 83, N-[(5-chlorofuran-2-yl)[4-methyl-2-(piperidin-1-yl)phenyl]methyl]-2-(2-oxo-2,3-dihydro-1H-indol-5-yl)acetamide] | 0.01 to 0.1 | 0.1 to 1 |
| Cc1ccc(C(NC(=O)Cc2ccc3c(c2)OCC(=O)N3)c2ccc(C)o2)c(Br)c1 (stereo not drawn) [Cpd. 31, N-[(2-bromo-4-methylphenyl)(5-methylfuran-2-yl)methyl]-2-(3-oxo-3,4-dihydro-2H-1,4-benzoxazin-7-yl)acetamide] | 0.01 to 0.1 | 0.1 to 1 |
| Cc1ccc(C(NC(=O)Cc2ccc3c(c2)CS(=O)(=O)N3)c2ccc(C)o2)c(Br)c1 (stereo not drawn) [Cpd. 28, N-[(2-bromo-4-methylphenyl)(5-methylfuran-2-yl)methyl]-2-(2,2-dioxo-1,3-dihydro-2,1-benzothiazol-5-yl)acetamide] | 0.1 to 1 | 1 to 10 |
| Cc1ccc(C(NC(=O)C2(c3ccc4c(c3)CC(=O)N4)CC2)c2ccc(C)o2)c(C)c1 (stereo not drawn) [Cpd. 61, N-[(2,4-dimethylphenyl)(5-methylfuran-2-yl)methyl]-1-(2-oxo-2,3-dihydro-1H-indol-5-yl)cyclopropane-1-carboxamide] | < 0.01 | < 0.1 |
| Cc1ccc(C(NC(=O)C2(c3ccc4[nH]ccc4c3)CC2)c2ccc(C)o2)c(C)c1 (stereo not drawn) [Cpd. 108, N-[(2,4-dimethylphenyl)(5-methylfuran-2-yl)methyl]-1-(1H-indol-5-yl)cyclopropane-1-carboxamide] | 0.01 to 0.1 | < 0.1 |
| Cc1ccc(C(NC(=O)C2(c3ccc4[nH]cc(CCO)c4c3)CC2)c2ccc(Cl)o2)c(C)c1 (stereo not drawn) [Cpd. 62, N-[(5-chlorofuran-2-yl)(2,4-dimethylphenyl)methyl]-1-[3-(2-hydroxyethyl)-1H-indol-5-yl]cyclopropane-1-carboxamide] | 0.01 to 0.1 | < 0.1 |
| Cc1ccc(C(NC(=O)Cc2cc(C)c3c(c2)CC(=O)N3)c2ccc(C)o2)c(N2CCCCC2)c1 (stereo not drawn) [Cpd. 54, N-{[4-methyl-2-(piperidin-1-yl)phenyl](5-methylfuran-2-yl)methyl}-2-(7-methyl-2-oxo-2,3-dihydro-1H-indol-5-yl)acetamide] | 0.01 to 0.1 | < 0.1 |
| Cc1ccc(C(NC(=O)Cc2ccc3c(c2)OCC(=O)N3)c2ccc(C)o2)c(C)c1 (stereo not drawn) [Cpd. 33, N-[(2,4-dimethylphenyl)(5-methylfuran-2-yl)methyl]-2-(3-oxo-3,4-dihydro-2H-1,4-benzoxazin-7-yl)acetamide] | 0.1 to 1 | 0.1 to 1 |
| Cc1ccc(C(NC(=O)C2(c3ccc4c(c3)CN(S(C)(=O)=O)C4)CC2)c2ccc(C)o2)c(N2CCCC2)c1 (stereo not drawn) [Cpd. 73, 1-(2-methanesulfonyl-2,3-dihydro-1H-isoindol-5-yl)-N-{[4-methyl-2-(pyrrolidin-1-yl)phenyl](5-methylfuran-2-yl)methyl}cyclopropane-1-carboxamide] | 0.01 to 0.1 | < 0.1 |
| Cc1ccc(C(NC(=O)Cc2ccc3c(c2)/C(=N/N)C(=O)N3)c2ccc(C)o2)c(N2CCCCC2)c1 (stereo not drawn) [Cpd. 84, 2-[(3Z)-3-hydrazinylidene-2-oxo-2,3-dihydro-1H-indol-5-yl]-N-{[4-methyl-2-(piperidin-1-yl)phenyl](5-methylfuran-2-yl)methyl}acetamide] | – | 0.1 to 1 |
